Measurements published in US20230077362A1 (CORTEVA AGRISCIENCE LLC, priority 2019, published 2023).
Read-outs that look alike come from different tables or passages of the source.

Columns and labels:
[1] = test system: Beet Armyworm (Spodoptera exigua) ("BAW"), second instar larvae; assay: Bioassay on beet armyworm (BAW), 128-well diet tray assay; assay type: in vivo; settings: for pest or weed control at 50 µg/cm2: Spodoptera exigua; for BAW rating: C = not tested, D = no activity noticed
In short: (§1)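 Mortality (%) is scored well by well after five to seven days at 25° C. on a 14:10 light:dark regime. The value given is the mean of eight wells.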

[2] = test system: Cabbage Looper (Trichoplusia ni) ("CL"), second instar larvae; assay: Bioassay on cabbage looper (CL), 128-well diet tray assay; assay type: in vivo; settings: for CL rating: C = not tested, D = no activity noticed
In short: as §1

[3] = read-out: BAW (Biological Results, rating)
[4] = Trichoplusia ni, read-out: CL (Biological Results, rating)
[5] = Trichoplusia ni, read-out: CL rating

| Compound | pest or weed control at 50 µg/cm2 [1, 3] [%] | pest or weed control at 50 µg/cm2 [2, 4] [%] | pest or weed control at 50 µg/cm2 ([1]; read-out: BAW rating) [%] | pest or weed control at 50 µg/cm2 [2, 5] [%] | further results |
| --- | --- | --- | --- | --- | --- |
| Cc1cc(-c2ncn(-c3ccc(OC(F)(F)F)cn3)n2)ccc1NC(=O)/N=C1\SCC(=O)N1c1cc(N(C)C)ccc1C(C)C [Compound J251, (Z)-1-(3-(5-(Dimethylamino)-2-isopropylphenyl)-4-oxothiazolidin-2-ylidene)-3-(2-methyl-4-(1-(5-(trifluoromethoxy)pyridin-2-yl)-1H-1,2,4-triazol-3-yl)phenyl)urea] | 50 to 100 | 50 to 100 |  |  |  |
| Cc1ccc(COCCF)c(N2C(=O)CS/C2=N\C(=O)Nc2ccc(-c3ncn(-c4ccc(OC(F)(F)C(F)(F)F)cc4)n3)cc2C)c1 [Compound J801, (Z)-1-(3-(2-((2-Fluoroethoxy)methyl)-5-methylphenyl)-4-oxothiazolidin-2-ylidene)-3-(2-methyl-4-(1-(4-(perfluoroethoxy)phenyl)-1H-1,2,4-triazol-3-yl)phenyl)urea] |  |  |  |  | BAW rating (% control or mortality class) ([1]; Table ABC, species BAW, 128-well diet tray assay, second instar larvae): A (50-100); mortality at 50 µg/cm2 ([2]; Trichoplusia ni, Table ABC, species CL, 128-well diet tray assay, second instar larvae, read-out: CL rating (% control or mortality class)): 50 to 100% |
| Cc1ccc(N2C(=O)CS/C2=N\C(=O)Nc2ccc(-c3ncn(-c4ccc(C(F)(F)F)cn4)n3)cc2F)c(COCC(F)(F)F)c1 [Compound J451] |  |  |  |  | BAW rating ([1]; Table ABC, species BAW): A (50-100); CL rating ([2]; Table ABC, species CL): A (50-100) |
| COC(C)c1ccc(C)cc1N1C(=O)CS/C1=N\C(=O)Nc1ccc(-c2nc(-c3ccc(OC(F)(F)F)cc3)no2)cc1F (centres unmarked) [Compound J434, (Z)-1-(2-Fluoro-4-(3-(4-(trifluoromethoxy)phenyl)-1,2,4-oxadiazol-5-yl)phenyl)-3-(3-(2-(1-methoxyethyl)-5-methylphenyl)-4-oxothiazolidin-2-ylidene)urea] |  |  | 50 to 100 | 50 to 100 |  |
| Cc1ccc(COCC(F)(F)F)c(N2C(=O)CS/C2=N\C(=O)Nc2ccc(-c3ncn(-c4ccc(S(F)(F)(F)(F)F)cc4)n3)cc2C)c1 [Compound J549] |  |  |  |  | BAW rating ([1]; Table ABC, species BAW): A (50-100); CL rating ([2]; Table ABC, species CL): A (50-100) |
| CC(=O)c1cc(-c2ncn(-c3ccc(OC(F)(F)F)cc3)n2)ccc1NC(=O)/N=C1\SCC(=O)N1c1cc(N(C)C)ccc1C(C)C [Compound J396, (Z)-1-(2-Acetyl-4-(1-(4-(trifluoromethoxy)phenyl)-1H-1,2,4-triazol-3-yl)phenyl)-3-(3-(5-(dimethylamino)-2-isopropylphenyl)-4-oxothiazolidin-2-ylidene)urea] |  |  | 50 to 100 | 50 to 100 |  |
| CCOCc1ccc(C)cc1N1C(=O)CS/C1=N\C(=O)Nc1ccc(-c2ncn(-c3ccc(OC(F)(F)F)cc3)n2)cc1C(F)F [Compound J214, (Z)-1-(2-(Difluoromethyl)-4-(1-(4-(trifluoromethoxy)phenyl)-1H-1,2,4-triazol-3-yl)phenyl)-3-(3-(2-(ethoxymethyl)-5-methylphenyl)-4-oxothiazolidin-2-ylidene)urea] | 50 to 100 | 50 to 100 |  |  |  |
| COC(C)c1ccc(C)cc1N1C(=O)CS/C1=N\C(=O)Nc1ccc(-c2ncn(-c3ccc(C(F)(F)F)cn3)n2)cc1F (centres unmarked) [Compound J280, (Z)-1-(2-Fluoro-4-(1-(5-(trifluoromethyl)pyridin-2-yl)-1H-1,2,4-triazol-3-yl)phenyl)-3-(3-(2-(1-methoxyethyl)-5-methylphenyl)-4-oxothiazolidin-2-ylidene)urea] | 50 to 100 | 50 to 100 |  |  |  |
| CCCc1ccc(N(C)C)cc1N1C(=O)CS/C1=N\C(=O)Nc1ccc(-c2ncn(-c3ccc(S(=O)(=O)C(F)(F)F)cc3)n2)cc1F [Compound J370, (Z)-1-(3-(5-(Dimethylamino)-2-propylphenyl)-4-oxothiazolidin-2-ylidene)-3-(2-fluoro-4-(1-(4-((trifluoromethyl)sulfonyl)phenyl)-1H-1,2,4-triazol-3-yl)phenyl)urea] |  |  | 50 to 100 | 50 to 100 |  |
| Cc1ccc(OCC(F)(F)F)c(N2C(=O)CS/C2=N\C(=O)Nc2ccc(-c3ncn(-c4ccc(C(F)(F)F)cc4)n3)cc2F)c1 [Compound J63, (Z)-1-(2-Fluoro-4-(1-(4-(trifluoromethyl)phenyl)-1H-1,2,4-triazol-3-yl)phenyl)-3-(3-(5-methyl-2-(2,2,2-trifluoroethoxy)phenyl)-4-oxothiazolidin-2-ylidene)urea] | 50 to 100 | 50 to 100 |  |  |  |
| Cc1ccc(-n2cnc(-c3ccc(NC(=O)/N=C4\SCC(=O)N4c4cc(N(C)C)ccc4C(C)C)c(F)c3)n2)cc1 [Compound J150, (Z)-1-(3-(5-(Dimethylamino)-2-isopropylphenyl)-4-oxothiazolidin-2-ylidene)-3-(2-fluoro-4-(1-(p-tolyl)-1H-1,2,4-triazol-3-yl)phenyl)urea] | 50 to 100 | 50 to 100 |  |  |  |
| CC(C)c1ccc(N(C)C)cc1N1C(=O)CS/C1=N\C(=O)Nc1ccc(-c2cn(-c3ccc(S(F)(F)(F)(F)F)cc3)cn2)cc1F [Compound J603, (Z)-1-(3-(5-(Dimethylamino)-2-isopropylphenyl)-4-oxothiazolidin-2-ylidene)-3-(2-fluoro-4-(1-(4-(pentafluoro-λ^6-sulfaneyl)phenyl)-1H-imidazol-4-yl)phenyl)urea] |  |  | 50 to 100 | 50 to 100 |  |
| Cc1ccc(COCC(F)(F)F)c(N2C(=O)CS/C2=N\C(=O)Nc2ccc(-c3ncn(-c4ccc(C(F)(F)F)cc4)n3)cc2)c1 [Compound J332, (Z)-1-(3-(5-Methyl-2-((2,2,2-trifluoroethoxy)methyl)phenyl)-4-oxothiazolidin-2-ylidene)-3-(4-(1-(4-(trifluoromethyl)phenyl)-1H-1,2,4-triazol-3-yl)phenyl)urea] | 50 to 100 | 50 to 100 |  |  |  |
| COc1ccc(C(C)C)c(N2C(=O)CS/C2=N\C(=O)Nc2ccc(-c3ncn(-c4ccc(C(F)F)cn4)n3)cc2F)c1 [Compound J355] | 50 to 100 | 50 to 100 |  |  |  |
| CCc1cc(-c2ncn(-c3ccc(OC(F)(F)F)cc3)n2)ccc1NC(=O)/N=C1\SCC(=O)N1c1cc(N(C)C)ccc1C(C)C [Compound J83, (Z)-1-(3-(5-(Dimethylamino)-2-isopropylphenyl)-4-oxothiazolidin-2-ylidene)-3-(2-ethyl-4-(1-(4-(trifluoromethoxy)phenyl)-1H-1,2,4-triazol-3-yl)phenyl)urea] | 50 to 100 | 50 to 100 |  |  |  |
| CC(C)c1ccc(C(C)C)c(N2C(=O)CS/C2=N\C(=O)Nc2ccc(-c3ncn(-c4ccc(OC(F)(F)F)cc4)n3)cc2F)c1 [Compound J164, (Z)-1-(3-(2,5-Diisopropylphenyl)-4-oxothiazolidin-2-ylidene)-3-(2-fluoro-4-(1-(4-(trifluoromethoxy)phenyl)-1H-1,2,4-triazol-3-yl)phenyl)urea] | 50 to 100 | 50 to 100 |  |  |  |
| CCCc1ccc(N(C)C)cc1N1C(=O)CS/C1=N\C(=O)Nc1ccc(-c2ncn(-c3ccc(C(F)(F)F)cn3)n2)cc1C [Compound J294, (Z)-1-(3-(5-(Dimethylamino)-2-propylphenyl)-4-oxothiazolidin-2-ylidene)-3-(2-methyl-4-(1-(5-(trifluoromethyl)pyridin-2-yl)-1H-1,2,4-triazol-3-yl)phenyl)urea] | 50 to 100 | 50 to 100 |  |  |  |
| CC(C)c1cc(F)c(N(C)C)cc1N1C(=O)CS/C1=N\C(=O)Nc1ccc(-c2nnc(-c3ccc(OC(F)(F)F)cc3)o2)cc1F [Compound J432, (Z)-1-(3-(5-(Dimethylamino)-4-fluoro-2-isopropylphenyl)-4-oxothiazolidin-2-ylidene)-3-(2-fluoro-4-(5-(4-(trifluoromethoxy)phenyl)-1,3,4-oxadiazol-2-yl)phenyl)urea] |  |  | 50 to 100 | 50 to 100 |  |
| COCOc1cc(-c2ncn(-c3ccc(OC(F)(F)F)cc3)n2)ccc1NC(=O)/N=C1\SCC(=O)N1c1cc(C)ccc1COCC(F)(F)F [Compound J173, (Z)-1-(2-(Methoxymethoxy)-4-(1-(4-(trifluoromethoxy)phenyl)-1H-1,2,4-triazol-3-yl)phenyl)-3-(3-(5-methyl-2-((2,2,2-trifluoroethoxy)methyl)phenyl)-4-oxothiazolidin-2-ylidene)urea] | 50 to 100 | 50 to 100 |  |  |  |
| CCOC(C)c1ccc(C)cc1N1C(=O)CS/C1=N\C(=O)Nc1ccc(-c2cn(-c3ccc(OC(F)(F)F)cc3)cn2)cc1C (centres unmarked) [Compound J486, (Z)-1-(3-(2-(1-Ethoxyethyl)-5-methylphenyl)-4-oxothiazolidin-2-ylidene)-3-(2-methyl-4-(1-(4-(trifluoromethoxy)phenyl)-1H-imidazol-4-yl)phenyl)urea] |  |  | 50 to 100 | 50 to 100 |  |
| CCCc1ccc(C)cc1N1C(=O)CS/C1=N\C(=O)Nc1ccc(-c2ncn(-c3ccc(N(C(=O)OC)C(F)(F)F)cc3)n2)cc1F [Compound J783, Methyl (Z)-(4-(3-(3-fluoro-4-(3-(3-(5-methyl-2-propylphenyl)-4-oxothiazolidin-2-ylidene)ureido)phenyl)-1H-1,2,4-triazol-1-yl)phenyl)(trifluoromethyl)carbamate] |  |  | 50 to 100 | 50 to 100 |  |
| Cc1ccc(COCc2nc3ccccc3s2)c(N2C(=O)CS/C2=N\C(=O)Nc2ccc(-c3ncn(-c4ccc(OC(F)(F)F)cc4)n3)cc2F)c1 [Compound J640, (Z)-1-(3-(2-((Benzo[d]thiazol-2-ylmethoxy)methyl)-5-methylphenyl)-4-oxothiazolidin-2-ylidene)-3-(2-fluoro-4-(1-(4-(trifluoromethoxy)phenyl)-1H-1,2,4-triazol-3-yl)phenyl)urea] |  |  | 50 to 100 | 50 to 100 |  |
